Patent US5714488A, “Bis-heteroarylylmethoxyphenyl ketone derivatives as inhibitors of leukotriene biosynthesis” (Abbott Laboratories, priority 1996, dated 1998)
Structures can show the parent of a compound that is named as a salt.

What follows are molecules tested on leukotriene biosynthesis (assay: In vivo leukotriene inhibition, Ionophore A23187-Induced Rat Pleural Inflammation Model). Settings: 3.O mg/kg; male rats; dosed in 0.2% methocel one hour prior to intrapleural A23187 (20 μg); lavage after thirty minutes.
Description: Inhibition of leukotriene biosynthesis in vivo was evaluated using the Ionophore A23187-Induced Rat Pleural Inflammation Model. Pleural inflammation was induced in male rats following the method of Rao, et al. (Rao, T. S., Currie, J. L., Shaffer, A. F., Isakson, P. C., Evaluation of 5-lipoxygenase Inhibitors, Zileuton, A-78773 and ICI D-2138 in an Ionophore (A-23187) Induced Pleural Inflammation Model in the Rat, Life Sciences, 53, 147 (1993)). Rats were dosed with experimental compounds in 0.2% methocel one hour prior to the intrapleural injection of the calcium ionophore, A23187. The rats where lightly anesthetized with Pentrane (Abbott Laboratories) and injected intrapleurally with 0.5 ml of 2% ethanol in injectable saline (Abbott Laboratories) containing 20 μg of A23187 (Cal BioChem-Novabiochem). Thirty minutes later the animals were euthanised and the pleural cavities lavaged with ice cold saline (Abbott Laboratories). The lavage fluid was then added to ice cold methanol (final methanol concentration 30%) to lyse cells and precipitate protein. Eicosanoids were determined by enzyme immunoassay by standard methods.

SMILES	% Inhibition (In Vivo Leukotriene Inhibition in Rat Pleural Inflammation) [%]
O=C(O)CON=CC=C(c1ccc(OCc2ccc3ccccc3n2)cc1)c1ccc(OCc2ccc3ccccc3n2)cc1 [Example 12]	60

What follows are molecules tested on 5-Lipoxygenase (assay: Inhibition of calcium ionophore-induced LTB4 formation in human polymorphonuclear leukocytes (PMNL)). Settings: 15 min preincubation, calcium ionophore 8.3 μM, 10 min at 37° C., LTB4 by enzyme-linked immunoassay or HPLC, read-out: IC50 (In Vitro Inhibitory Potencies Against 5-Lipoxygenase From Stimulated LTB4 Formation in Human Polymorphonuclear Leukocytes).
Format: cell-based
Description: Inhibition of leukotriene biosynthesis was evaluated in vitro using an assay involving calcium ionophore-induced LTB4 expressed in human polymorphornuclear leukocytes (PMNL). Human PMNL isolated from heparinized (20 USP units/mL) venous blood (25 mL) obtained from healthy volunteers was layered over an equal volume of Ficoll-Hypaque Mono-Poly Resolving Medium (ICN Flow, Costa Mesa, CA) and centrifugated at 400×g for 40 minutes at 20° C. The PMNL was collected, erythrocytes lysed and washed 2× and suspended at 1.0×10^7 cells/mL in Earle's balanced salt solution with 17 mM Earle's HEPES. Aliquots of the cell suspension were preincubated with test compounds dissolved in DMSO (final concentration <2%) for 15 minutes and stimulated with calcium ionophore (final concentration 8.3 μM) for 10 min. at 37° C. Incubations were stopped with the addition of two volumes of ice-cold methanol followed by centrifuging the cell suspensions at 4° C. for 10 minutes at 450×g. The amount of LTB4 in the methanol extract was analyzed by enzyme-linked immunoassay or by HPLC analysis.

SMILES	IC50 [nM]
O=C(O)CON=CC=C(c1ccc(OCc2ccc3ccccc3n2)cc1)c1ccc(OCc2ccc3ccccc3n2)cc1 [Example 12]	26
O=C(O)CON=C(c1ccc(OCc2ccc3ccc(Cl)cc3n2)cc1)c1ccc(OCc2ccc3ccc(Cl)cc3n2)cc1 [Example 6, bis(4-(7-chloro-2-quinolylmethoxy)phenyl)methyloximinoaceticacid]	220
O=C(O)C=C(c1ccc(OCc2ccc3ccccc3n2)cc1)c1ccc(OCc2ccc3ccccc3n2)cc1 [Example 11]	50
ON=C(c1ccc(OCc2ccc3ccccc3n2)cc1)c1ccc(OCc2ccc3ccccc3n2)cc1 [Example 2, bis(4-(2-quinolylmethoxy)phenyl) ketoxime]	40
O=C(O)CON=C(c1ccc(OCc2nc3ccccc3s2)cc1)c1ccc(OCc2nc3ccccc3s2)cc1 [Example 9, bis(4-(2-benzothiazoylmethoxy)-phenyl)methyloximinoacetic acid sodium salt]	40
O=C(O)CON=C(c1ccc(OCc2ccc3ccccc3n2)cc1)c1ccc(OCc2ccc3ccccc3n2)cc1 [Example 1, bis(4-(2-quinolylmethoxy)phenyl)methyloximinoacetic acid]	32
